According to patent US7008953B2, “3, 5 Disubstituted indazole compounds, pharmaceutical compositions, and methods for mediating or inhibiting cell proliferation” (Agouron Pharmaceuticals, Inc., priority 2003, dated 2006):

Tests used:
Format in all cases: biochemical
Details in all cases: method of Davies et al.
CDK2/A = CDK2/A (Homo sapiens, UniProt P24941); test: Panel of protein kinases: CDK2/A
Method: (§1) The compounds of the present invention were screened against a large panel of protein kinase to determine inhibition activity for CDK as against a variety of protein kinases. The assay was conducted using methods and materials described by Davies, S et al. Specificity and Mechanism of Action of Some Commonly Used Protein Kinase Inhibitors, Biochem J. 351, 95–105 (2000), the contents of which are herein incorporated by reference. The compounds were screened against a panel of protein kinases which include AMP-activiated protein kinase (AMPK), checkpoint kinase (CHK1), casein kinases 1 and 2 (CK1 and CK2), cytoplasmic tyrosine kinase (CSK), dual serine/threonine/tyrosine kinase (DYRK1A), glycogen synthase kinase 3 (GSK3B), c-Jun N-terminal kinase (JNK), lymphocyte kinase (LCK), mitogen-activated protein kinases 2, K-1a, K2 (MAPK2, MAPKAP-K1a, and MAPKAP-K2), MAPK kinase (MKK1, also called MEK), mitogen and stress-activated protein kinase 1 (MSK1), never-in-mitosis kinase 6 (NEK6), p70 ribosomal protein S6 kinase (P70s6K1), 3-phosphoinositide-dependent protein kinase 1 (PDK1), phosphorylase kinase (PHK), protein kinase A (PKA), protein kinase B (PKB, also called Akt), protein kinase C (PKCa), p38-regulated/activated kinase (PRAK), Rho-dependent protein kinase (ROCK-II), stress-activated protein kinase 2a, 2b, 3 and 4 (SAPK-2A or p38, SAPK-2b or p38β2, SAPK3 or p38γ, SAPK4 or p38δ, respectively), and serum- and glucocorticoid-induced kinase (SGK). Compound activity was grouped into categories of weak (<50%), moderate (50–75%) and strong inhibition (>75%).

checkpoint kinase (CHK1) = target: T1, checkpoint kinase (CHK1) (Homo sapiens, UniProt O14757); test: Panel of protein kinases: CHK1
T1 sequence (O14757 1-476): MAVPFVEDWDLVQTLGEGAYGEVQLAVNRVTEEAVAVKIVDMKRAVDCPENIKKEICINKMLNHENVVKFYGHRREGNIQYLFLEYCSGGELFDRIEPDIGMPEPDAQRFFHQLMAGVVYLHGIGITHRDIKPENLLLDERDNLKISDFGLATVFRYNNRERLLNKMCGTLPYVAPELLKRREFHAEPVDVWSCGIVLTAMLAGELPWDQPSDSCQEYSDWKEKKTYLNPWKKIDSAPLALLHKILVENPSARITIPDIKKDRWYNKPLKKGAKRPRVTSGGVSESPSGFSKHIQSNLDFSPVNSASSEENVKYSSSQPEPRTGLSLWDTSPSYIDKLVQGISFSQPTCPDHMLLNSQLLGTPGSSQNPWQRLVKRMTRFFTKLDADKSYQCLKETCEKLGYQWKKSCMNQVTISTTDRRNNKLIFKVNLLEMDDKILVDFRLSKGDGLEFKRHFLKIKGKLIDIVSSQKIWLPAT
Method: as §1

[1] = target: cytoplasmic tyrosine kinase (CSK) (Homo sapiens, UniProt P41240); test: Panel of protein kinases: CSK
Method: as §1

[2] = target: c-Jun N-terminal kinase (JNK) (Homo sapiens, UniProt P45983); test: Panel of protein kinases: JNK
Method: as §1

lymphocyte kinase (LCK) = lymphocyte kinase (LCK) (Homo sapiens, UniProt P06239); test: Panel of protein kinases: LCK
Method: as §1

MAPKAP-K2 = MAPKAP-K2 (Homo sapiens, UniProt P49137); test: Panel of protein kinases: MAPKAP-K2
Method: as §1

[3] = target: T2, 3-phosphoinositide-dependent protein kinase 1 (PDK1) (Homo sapiens, UniProt O15530); test: Panel of protein kinases: PDK1
T2 sequence (O15530 1-556): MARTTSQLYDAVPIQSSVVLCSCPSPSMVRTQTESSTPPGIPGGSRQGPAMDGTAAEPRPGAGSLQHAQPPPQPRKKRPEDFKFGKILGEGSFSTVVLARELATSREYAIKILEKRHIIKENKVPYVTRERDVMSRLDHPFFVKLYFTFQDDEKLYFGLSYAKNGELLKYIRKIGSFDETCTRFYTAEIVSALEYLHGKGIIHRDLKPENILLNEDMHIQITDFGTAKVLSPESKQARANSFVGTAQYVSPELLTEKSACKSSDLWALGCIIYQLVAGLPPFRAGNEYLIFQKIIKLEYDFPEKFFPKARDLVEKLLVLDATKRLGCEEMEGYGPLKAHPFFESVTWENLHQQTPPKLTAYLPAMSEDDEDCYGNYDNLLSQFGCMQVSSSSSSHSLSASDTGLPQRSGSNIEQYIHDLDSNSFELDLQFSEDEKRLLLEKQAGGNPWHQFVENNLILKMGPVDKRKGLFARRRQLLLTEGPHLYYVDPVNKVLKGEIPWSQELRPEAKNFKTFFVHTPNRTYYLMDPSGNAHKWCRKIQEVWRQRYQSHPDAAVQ
Method: as §1

[4] = target: protein kinase B (PKB, also called Akt) (Homo sapiens, UniProt P31749); test: Panel of protein kinases: PKB
Method: as §1

[5] = target: T3, stress-activated protein kinase 3 (SAPK3 or p38γ) (Homo sapiens, UniProt P53778); test: Panel of protein kinases: SAPK3
T3 sequence (P53778 1-367): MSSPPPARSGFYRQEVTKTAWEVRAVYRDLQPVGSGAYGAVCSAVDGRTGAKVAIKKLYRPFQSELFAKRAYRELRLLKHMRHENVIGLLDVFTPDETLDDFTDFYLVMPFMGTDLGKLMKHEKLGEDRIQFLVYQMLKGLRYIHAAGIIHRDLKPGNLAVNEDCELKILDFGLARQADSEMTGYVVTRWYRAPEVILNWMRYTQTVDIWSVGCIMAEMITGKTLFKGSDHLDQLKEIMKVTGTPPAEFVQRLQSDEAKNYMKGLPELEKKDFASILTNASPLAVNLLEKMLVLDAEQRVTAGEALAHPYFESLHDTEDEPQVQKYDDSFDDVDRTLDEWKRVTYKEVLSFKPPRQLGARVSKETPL
Method: as §1

Chain of cytoplasmic tyrosine kinase (CSK) (P41240 whole entry, species assumed): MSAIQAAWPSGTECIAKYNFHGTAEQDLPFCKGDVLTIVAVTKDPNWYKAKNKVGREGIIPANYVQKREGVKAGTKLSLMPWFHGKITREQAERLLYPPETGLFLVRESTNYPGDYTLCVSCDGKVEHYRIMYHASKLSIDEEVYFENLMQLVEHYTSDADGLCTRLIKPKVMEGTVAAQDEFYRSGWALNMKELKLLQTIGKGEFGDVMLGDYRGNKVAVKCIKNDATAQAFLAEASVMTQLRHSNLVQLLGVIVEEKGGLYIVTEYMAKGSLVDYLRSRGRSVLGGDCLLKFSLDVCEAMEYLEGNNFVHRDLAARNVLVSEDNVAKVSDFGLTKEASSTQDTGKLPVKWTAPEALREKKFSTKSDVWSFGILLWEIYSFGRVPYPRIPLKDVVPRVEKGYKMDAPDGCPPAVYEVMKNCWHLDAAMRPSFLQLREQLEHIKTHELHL
Chain of c-Jun N-terminal kinase (JNK) (P45983 whole entry): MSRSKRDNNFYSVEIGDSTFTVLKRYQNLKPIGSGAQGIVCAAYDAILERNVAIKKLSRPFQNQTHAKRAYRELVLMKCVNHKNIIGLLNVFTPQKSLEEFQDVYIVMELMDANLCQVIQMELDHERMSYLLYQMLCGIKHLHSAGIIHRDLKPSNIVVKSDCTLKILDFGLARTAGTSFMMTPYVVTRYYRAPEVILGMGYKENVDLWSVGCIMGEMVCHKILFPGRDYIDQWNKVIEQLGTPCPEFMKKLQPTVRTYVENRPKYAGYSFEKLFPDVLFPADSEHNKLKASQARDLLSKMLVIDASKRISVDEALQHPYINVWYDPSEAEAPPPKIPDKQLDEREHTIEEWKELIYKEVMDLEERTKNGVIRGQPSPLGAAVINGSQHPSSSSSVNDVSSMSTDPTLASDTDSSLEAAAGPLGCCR
Chain of MAPKAP-K2 (P49137 whole entry, species assumed): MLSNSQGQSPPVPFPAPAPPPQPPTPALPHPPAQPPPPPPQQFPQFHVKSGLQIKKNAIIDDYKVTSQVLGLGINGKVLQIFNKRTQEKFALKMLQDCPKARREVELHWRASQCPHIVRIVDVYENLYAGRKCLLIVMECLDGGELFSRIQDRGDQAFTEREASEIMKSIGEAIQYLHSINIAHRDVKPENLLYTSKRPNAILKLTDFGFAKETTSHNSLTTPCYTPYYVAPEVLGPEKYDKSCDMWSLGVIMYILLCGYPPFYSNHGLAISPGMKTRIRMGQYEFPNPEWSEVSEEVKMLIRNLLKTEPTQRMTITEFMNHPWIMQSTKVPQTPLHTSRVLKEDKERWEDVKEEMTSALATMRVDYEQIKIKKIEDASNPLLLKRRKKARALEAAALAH
Chain of protein kinase B (PKB, also called Akt) (P31749 118-480 limits assumed, species assumed): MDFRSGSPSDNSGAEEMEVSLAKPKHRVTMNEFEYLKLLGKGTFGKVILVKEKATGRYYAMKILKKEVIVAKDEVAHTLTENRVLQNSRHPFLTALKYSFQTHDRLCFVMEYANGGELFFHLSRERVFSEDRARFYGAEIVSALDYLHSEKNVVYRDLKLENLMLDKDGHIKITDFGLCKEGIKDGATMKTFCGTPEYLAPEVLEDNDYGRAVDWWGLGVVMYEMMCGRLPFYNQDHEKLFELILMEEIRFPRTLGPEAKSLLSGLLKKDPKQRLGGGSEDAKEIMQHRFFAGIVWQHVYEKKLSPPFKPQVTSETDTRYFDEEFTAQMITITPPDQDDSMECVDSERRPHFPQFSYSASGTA
Chain of lymphocyte kinase (LCK) (P06239 whole entry, species assumed): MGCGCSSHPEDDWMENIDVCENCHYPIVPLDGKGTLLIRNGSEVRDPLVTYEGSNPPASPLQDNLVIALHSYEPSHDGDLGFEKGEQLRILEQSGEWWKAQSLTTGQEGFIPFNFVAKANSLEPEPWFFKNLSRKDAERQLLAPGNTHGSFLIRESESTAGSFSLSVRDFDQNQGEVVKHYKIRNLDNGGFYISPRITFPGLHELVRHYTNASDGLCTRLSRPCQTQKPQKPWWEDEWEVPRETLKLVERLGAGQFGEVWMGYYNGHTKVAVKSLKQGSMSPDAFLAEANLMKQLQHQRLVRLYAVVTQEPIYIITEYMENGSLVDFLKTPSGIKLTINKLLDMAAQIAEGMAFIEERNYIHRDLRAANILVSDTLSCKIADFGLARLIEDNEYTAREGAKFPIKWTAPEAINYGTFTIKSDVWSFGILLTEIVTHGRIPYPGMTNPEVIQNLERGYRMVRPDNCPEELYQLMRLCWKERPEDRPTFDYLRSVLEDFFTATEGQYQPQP

SMILES	Kinase CDK2/A inhibition (CDK2/A)	Kinase CHK1 inhibition (checkpoint kinase (CHK1))	Kinase CSK inhibition [1]	Kinase JNK inhibition [2]	Kinase LCK inhibition (lymphocyte kinase (LCK))	Kinase MAPKAP-K2 inhibition (MAPKAP-K2)	Kinase PDK1 inhibition [3]	Kinase PKB inhibition [4]	Kinase SAPK3 inhibition [5]
CCNCc1cncc(-c2ccc3[nH]nc(-c4nc5c(C(=O)NC)cccc5[nH]4)c3c2)c1C [B]	++ (Strong inhibition >75%)	+ (Moderate inhibition 50–75%)	− (Weak inhibition <50%)	− (Weak inhibition <50%)	++ (Strong inhibition >75%)	− (Weak inhibition <50%)	− (Weak inhibition <50%)	− (Weak inhibition <50%)	− (Weak inhibition <50%)
CCNCc1cncc(-c2ccc3[nH]nc(-c4nc5cc(F)ccc5[nH]4)c3c2)c1C [Example 2, Ethyl-{5-[3-(5-fluoro-1H-benzoimidazol-2-yl)-1H-indazol-5-yl]-4-methyl-pyridin-3-ylmethyl}-amine]	++ (Strong inhibition >75%)	− (Weak inhibition <50%)	− (Weak inhibition <50%)	− (Weak inhibition <50%)	+ (Moderate inhibition 50–75%)	− (Weak inhibition <50%)	− (Weak inhibition <50%)	− (Weak inhibition <50%)	− (Weak inhibition <50%)
CCNCc1cncc(-c2ccc3[nH]nc(-c4nc5c(SC)cccc5[nH]4)c3c2)c1C [C]	++ (Strong inhibition >75%)	− (Weak inhibition <50%)	− (Weak inhibition <50%)	− (Weak inhibition <50%)	+ (Moderate inhibition 50–75%)	− (Weak inhibition <50%)	− (Weak inhibition <50%)	− (Weak inhibition <50%)	− (Weak inhibition <50%)
CCNCc1cncc(-c2ccc3[nH]nc(-c4nc5c(F)cc(F)cc5[nH]4)c3c2)c1C [Example 1, {5-[3-(4,6-Difluoro-1H-benzoimidazol-2-yl)-1H-indazol-5-yl]-4-methyl-pyridin-3-ylmethyl}-ethyl-amine]	++ (Strong inhibition >75%)	− (Weak inhibition <50%)	− (Weak inhibition <50%)	− (Weak inhibition <50%)	+ (Moderate inhibition 50–75%)	− (Weak inhibition <50%)	− (Weak inhibition <50%)	− (Weak inhibition <50%)	− (Weak inhibition <50%)
CCNCc1cncc(-c2ccc3[nH]nc(-c4nc5ccccc5[nH]4)c3c2)c1C [A]	++ (Strong inhibition >75%)	+ (Moderate inhibition 50–75%)	− (Weak inhibition <50%)	− (Weak inhibition <50%)	++ (Strong inhibition >75%)	− (Weak inhibition <50%)	+ (Moderate inhibition 50–75%)	− (Weak inhibition <50%)	− (Weak inhibition <50%)
CCNCc1cncc(-c2ccc3[nH]nc(-c4nc5c(NC(C)=O)cccc5[nH]4)c3c2)c1C [D]	++ (Strong inhibition >75%)	− (Weak inhibition <50%)	− (Weak inhibition <50%)	− (Weak inhibition <50%)	− (Weak inhibition <50%)	− (Weak inhibition <50%)	− (Weak inhibition <50%)	− (Weak inhibition <50%)	− (Weak inhibition <50%)
